# According to US10710978B2, “STK4 inhibitors for treatment of hematologic malignancies” (Dana-Farber Cancer Institute, Inc., priority 2015, dated 2020):
# Like-named read-outs stand apart in the source and are kept apart here.
# Key:
# YAP1 = assay: Western blotting; format: cell-based; details: for YAP1 levels: H929 and MM.1S cells
# Excerpt: MM.1S, KMS20 and H929 cells are counted, diluted and plated. Cells are then […] with DMSO or different concentration of a compound of the present application for 6 hrs, 24 hrs or 48 hrs. MM cells are then collected and centrifuged at RT and the pellets are re-suspended in lysis buffer. Cell lysates are subjected to sodium dodecyl sulfate-polyacrylamide gel electrophoresis SDS-PAGE, transferred to nitrocellulose membranes, and immunoblotted with different antibodies.
# MM.1S, KMS20 and H929 cells were counted, diluted and plated in six-well plates to a final concentration of 500,000 cells/well. Cells were then […] with DMSO or different concentration of a compound of the present application for 6 hrs, 24 hrs or 48 hrs. MM cells were then collected and centrifuged for 5 min, 1300 rpm at RT. The pellets were re-suspended in lysis buffer Laemli 1× (Laemli 5×: SDS 10%, DTT 500 mM, Tris-HCl pH6.8 0.4M, BromoFenol Blue, Glycerol 50%). Cell lysates were subjected to sodium dodecyl sulfate-polyacrylamide gel electrophoresis SDS-PAGE, transferred to nitrocellulose membranes, and immunoblotted with different antibodies: YAP1 (#4912), p-YAP1 (S127) (#13008), LATS1 (#9153), p-LATS1 (Thr1079) (#8654), MOB1 (#3863), p-MOB1 (Thr12) (#8843), p-MST1/p-MST2 (Thr183/Thr180) (#3681), p21 (#2947), PARP (#9532), ERK, STAT, and GAPDH (#5174) from Cell Signaling, Beverly, Mass., United States; STK4 (ab57836) (from Abcam, Cambridge, Mass., United States); PUMA (sc-28226), BAX (sc-20067), from Santa Cruz, Dallas, Tex., United States; β-actin from Sigma-Aldrich (St. Louis, Mo., United States). All antibodies were diluted 1:500, except for β-actin antibody (1:50,000 dilution). In FIG. 8, H929 cells were treated with Compound I-9 or DMSO at 1 μM concentration for 24 hours. Lysates were then obtained and immunoblot was performed using antibodies against PARP, YAP1, PUMA, BAX. p21, and GAPDH.
# In FIG. 10A, H929 and MM.1S cells were treated with Compound I-1 or DMSO at 1 μM and 10 μM concentrations for 16 hours. Lysates were then obtained and immunoblot was performed using antibodies against YAP1 and GAPDH.
# In FIG. 12, H929 and MM. 1S cells were treated with Compound I-9, Compound I-12, or DMSO at 3 μM and 10 μM concentrations for 72 hours. Lysates were then obtained and immunoblot was performed using antibodies against YAP1 and Actin as loading control.
# FIG. 13 show a Western blot of H929 and MM.1S cells treated with Compound I-13, Compound I-28, Compound I-9, KIN001-305, BMS536924, or DMSO at 1 μM concentration for 16 hours. Lysates were then obtained and immunoblot was performed using antibodies against YAP1, Actin, and pMOB1.
# STK4 = STK4 (Homo sapiens (Human), UniProt Q13043); assay: KiNativ Platform experiment, MM.1S cell lysates, biotinylated ATP, Western blot; format: binding; details: 10 μM, 20 minutes, then biotinylated ATP 10 minutes
# Description: FIG. 32A and FIG. 32B show the results of a KiNativ™ Platform experiment obtained after incubating MM.1S cell lysates with 10 μM of the indicated compounds for 20 minutes, followed by incubation with biotinylated ATP for 10 minutes. FIG. 32A is a graph showing the ratio of MEK2 to STK4 derived from the Western blotting band signals in FIG. 32B, in MM.1S cell lysates treated with 10 μM of Compound I-9, I-13, or I-27 or KIN001-305 followed by incubation with biotinylated ATP. FIG. 32B is a Western blot showing the levels of STK4 and MEK2 in MM.1S cells treated with 10 μM of Compound I-9, I-13, or I-27 or KIN001-305 followed by incubation with biotinylated ATP.
# MM.1S cells = assay: MTT cell growth assay with stromal cell supernatant; format: cell-based, human; details: 72 hours; for growth inhibitory effect of Lenalidomide/Pomalidomide in combination: in the presence of stromal cell supernatant
# Description: FIG. 29 is a graph showing cell growth of MM.1S cells treated for 72 hours with Compound I-50 or I-51 alone or in combination with stromal cell supernatant in an MTT assay in triplicate.
# FIG. 30 is a graph showing cell growth of MM.1S cells treated for 72 hours with Lenalidomide/Pomalidomide in the presence of stromal cell supernatant alone or in combination with Compound I-50 in an MTT assay in triplicate.
# FIG. 31 is a graph showing cell growth of MM.1S cells treated for 72 hours with Lenalidomide/Pomalidomide in the presence of stromal cell supernatant alone or in combination with Compound I-51 in an MTT assay in triplicate.
# MM. 1S, KMS20, H929 MM cells, RPMI/8226, OPM-2 and U266 were counted and diluted to a final concentration of 400,000 cells/mL. The cell were plated in 96-well plates and mixed with an equal volume of culture media containing DMSO or increasing concentration of a compound of the present application diluted in DMSO (the final DMSO concentration is equal between all tested samples), using a STARlet Robot (Hamiltonrobotics, Reno, Nev., United States). Cells with increasing concentration of compound of the present application and DMSO were […] at different time points (24 hrs to 72 hrs). Viability was assessed by MTT or Cell Titer 96® AQueous One Solution cell proliferation assay (Promega). Specifically, for the MTT assay, the 3-[4,5 dimethylthiazol-2-yl]-2,5 diphenyltetrazolium bromide-MTT (Sigma-Aldrich, St. Louis, Mo., Unites States) colorimetric survival assay was used. At the various time points (24-72 hrs), 10 μL of 5 mg/mL MTT were added to cells. After 4 hrs incubation at 37° C., medium was discarded and 100 μL MTT stop solution (DMSO or Isopropanol with 1 N HCl) was used to dissolve MTT metabolic products. Absorbance was read at 570/630 nm. For the Promega assay, at the various time points, 20 μL of Cell Titer solution is added to the cells. After 4 hrs of incubation at 37° C. absorbance was read at […].
# JAK2 domain2 = JAK2 domain2 (Homo sapiens (Human), UniProt O60674); assay: KiNativ assay; format: binding; details: H929 live cell
# Procedure, shortened: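 The cell-based KiNativ method was applied to H929 cells that were still live when dosed with compound at 10 μM, in duplicate, and IC50 was read by mass spectrometry.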
# [1] = range class, read-out: % inhibition
# JAK2 domain2, sequence (O60674 whole entry, the tested form may be a part): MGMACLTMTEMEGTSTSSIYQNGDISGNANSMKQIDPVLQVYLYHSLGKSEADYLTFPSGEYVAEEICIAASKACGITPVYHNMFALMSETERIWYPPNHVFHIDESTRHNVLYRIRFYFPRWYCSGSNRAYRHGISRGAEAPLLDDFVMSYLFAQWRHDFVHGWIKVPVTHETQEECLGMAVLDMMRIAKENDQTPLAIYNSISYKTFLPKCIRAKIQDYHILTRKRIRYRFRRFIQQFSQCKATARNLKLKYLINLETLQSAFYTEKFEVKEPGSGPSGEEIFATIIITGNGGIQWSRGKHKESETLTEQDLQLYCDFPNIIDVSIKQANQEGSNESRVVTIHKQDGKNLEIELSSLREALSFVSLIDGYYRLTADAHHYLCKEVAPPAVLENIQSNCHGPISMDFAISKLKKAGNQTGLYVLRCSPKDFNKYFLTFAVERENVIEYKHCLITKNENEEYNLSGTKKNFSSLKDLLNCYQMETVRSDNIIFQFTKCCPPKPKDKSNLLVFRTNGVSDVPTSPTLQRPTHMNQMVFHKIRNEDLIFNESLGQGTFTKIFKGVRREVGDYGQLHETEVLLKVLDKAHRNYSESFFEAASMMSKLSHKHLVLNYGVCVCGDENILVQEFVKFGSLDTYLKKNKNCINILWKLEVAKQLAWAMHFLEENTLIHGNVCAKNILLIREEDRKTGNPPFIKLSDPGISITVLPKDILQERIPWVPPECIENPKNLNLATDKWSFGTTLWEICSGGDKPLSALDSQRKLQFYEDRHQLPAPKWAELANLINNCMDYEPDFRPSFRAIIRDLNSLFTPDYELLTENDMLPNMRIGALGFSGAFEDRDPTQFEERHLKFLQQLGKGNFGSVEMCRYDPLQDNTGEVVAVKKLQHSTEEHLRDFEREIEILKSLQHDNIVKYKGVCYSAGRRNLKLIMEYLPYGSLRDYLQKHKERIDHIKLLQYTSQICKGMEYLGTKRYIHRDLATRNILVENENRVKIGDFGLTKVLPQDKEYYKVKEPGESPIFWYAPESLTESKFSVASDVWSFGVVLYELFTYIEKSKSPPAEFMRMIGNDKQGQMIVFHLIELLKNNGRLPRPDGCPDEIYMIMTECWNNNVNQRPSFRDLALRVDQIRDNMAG
# STK4, sequence (Q13043 whole entry): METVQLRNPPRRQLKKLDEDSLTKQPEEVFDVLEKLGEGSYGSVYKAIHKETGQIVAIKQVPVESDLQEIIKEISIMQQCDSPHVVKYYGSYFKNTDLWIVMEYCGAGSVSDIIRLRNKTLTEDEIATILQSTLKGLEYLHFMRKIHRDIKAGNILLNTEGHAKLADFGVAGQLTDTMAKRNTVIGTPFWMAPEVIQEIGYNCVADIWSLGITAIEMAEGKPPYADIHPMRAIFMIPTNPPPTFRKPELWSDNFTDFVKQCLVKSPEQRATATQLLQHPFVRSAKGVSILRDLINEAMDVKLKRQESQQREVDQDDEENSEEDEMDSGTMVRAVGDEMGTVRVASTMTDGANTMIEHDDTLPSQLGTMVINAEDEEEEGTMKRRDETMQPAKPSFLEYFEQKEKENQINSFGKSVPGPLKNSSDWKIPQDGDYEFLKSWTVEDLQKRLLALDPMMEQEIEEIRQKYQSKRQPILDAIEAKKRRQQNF
structure (smiles),measurement,setting,value
"Nc1ncc(-c2cc([N+](=O)[O-])ccc2F)cc1-c1ccc2c(c1)CCNC2=O [Compound I-1, 6-(2-amino-5-(2-fluoro-5-nitrophenyl)pyridin-3-yl)-3,4-dihydroisoquinolin-1(2H)-one]",protein levels of YAP1,"YAP1; H929 cells and MM.1S cells, 1 μM and 10 μM, 16 hours",upregulation
"Nc1ncc(-c2cccc([N+](=O)[O-])c2F)cc1-c1ccc2c(c1)CCNC2=O [Compound I-9, 6-(2-amino-5-(2-fluoro-3-nitrophenyl)pyridin-3-yl)-3,4-dihydroisoquinolin-1(2H)-one]","affinity for STK4, as of ATP binding",STK4,highest affinity
same,YAP1 levels,"YAP1; 1 μM, 16 hours",increase
same,YAP1 levels,"YAP1; 3 μM and 10 μM, 72 hours",low
same,protein levels of YAP1,"YAP1; H929 cells, 1 μM, 24 hours",upregulation
"Nc1ncc(-c2cccc3ncsc23)cc1-c1ccc2c(c1)CCNC2=O [Compound I-13, 6-(2-amino-5-(benzo[d]thiazol-7-yl)pyridin-3-yl)-3,4-dihydroisoquinolin-1(2H)-one]",YAP1 levels,"YAP1; 1 μM, 16 hours",increase
"CN(C1CC1)S(=O)(=O)c1ccc(-c2cnc(N)c(-c3ccc4c(c3)CCNC4=O)c2)c(F)c1 [Compound I-28, 4-(6-amino-5-(1-oxo-1,2,3,4-tetrahydroisoquinolin-6-yl)pyridin-3-yl)-N-cyclopropyl-3-fluoro-N-methylbenzenesulfonamide]",YAP1 levels,"YAP1; 1 μM, 16 hours",increase
"COc1cc(NS(=O)(=O)C2CC2)ccc1-c1cnc(N)c(-c2ccc3c(c2)CCNC3=O)c1 [Compound I-50, N-(4-(6-amino-5-(1-oxo-1,2,3,4-tetrahydroisoquinolin-6-yl)pyridin-3-yl)-3-methoxyphenyl) cyclopropanesulfonamide]","susceptibility of cells on co-culture with stromal cell supernatant (cell growth, MTT)",MM.1S cells,enhanced the susceptibility
same,growth inhibitory effect of Lenalidomide/Pomalidomide in combination,MM.1S cells,enhanced the growth inhibitory effect
same,inhibition at 10 µM,JAK2 domain2; [1],0%
same,inhibition at 10 µM,JAK2 domain2; read-out: inhibition (10 μM),-71.2%
"Nc1ncc(-c2ccc(NS(=O)(=O)C3CC3)cc2F)cc1-c1ccc2c(c1)CCNC2=O [Compound I-51, N-(4-(6-amino-5-(1-oxo-1,2,3,4-tetrahydroisoquinolin-6-yl)pyridin-3-yl)-3-fluorophenyl) cyclopropanesulfonamide]","susceptibility of cells on co-culture with stromal cell supernatant (cell growth, MTT)",MM.1S cells,enhanced the susceptibility
same,growth inhibitory effect of Lenalidomide/Pomalidomide in combination,MM.1S cells,enhanced the growth inhibitory effect
"Nc1ncc(-c2ccc(NS(=O)(=O)C3CC3)cc2OC2CCCCC2)cc1-c1ccc2c(c1)CCNC2=O [Compound I-65, N-(4-(6-amino-5-(1-oxo-1,2,3,4-tetrahydroisoquinolin-6-yl)pyridin-3-yl)-3-(cyclohexyloxy)phenyl) cyclopropanesulfonamide]",inhibition at 10 µM,JAK2 domain2; [1],0%
same,inhibition at 10 µM,JAK2 domain2; read-out: inhibition (10 μM),18.8%
